This is an account of results in ChEMBL document CHEMBL2311402 (J Med Chem, 2013).

One data set deals with U-87 MG. As to the kind of experiment: Induction of apoptosis in human U87MG assessed as reduction in mitochondrial membrane potential at 30 uM after 24 hrs by JC-1 staining-based fluorescence microscopy. The data set is classed as functional, U-87MG ATCC. Further details: scale not given: the % may be the effect or the level left.
The next data set deals with Tubulin (Homo sapiens) (UniProt P68371+Q9H4B7+P0DPH7+P68366+Q13509+Q71U36+P04350+Q3ZCM7+P07437+P68363+Q9BQE3+Q6PEY2+Q13885+Q9BVA1+Q9BUF5). As to the kind of experiment: Displacement of [3H]colchicine from tubulin (unknown origin) at 5 uM after 10 mins by DEAE-cellulose filter method. The data set is classed as protein-complex assay. On the technique in general: Loss of bound radioactivity is the signal in a displacement assay; it reports binding, not function.

In the next data set the test system is NCI/ADR-RES. As to the kind of experiment: Cytotoxicity against human NCI/ADR-RES cells assessed as growth inhibition by trypan blue exclusion assay. The data set is classed as functional, cell-based.
The next data set addresses T1, CYP1A2 (Homo sapiens, UniProt P05177).
T1 sequence (P05177 whole entry): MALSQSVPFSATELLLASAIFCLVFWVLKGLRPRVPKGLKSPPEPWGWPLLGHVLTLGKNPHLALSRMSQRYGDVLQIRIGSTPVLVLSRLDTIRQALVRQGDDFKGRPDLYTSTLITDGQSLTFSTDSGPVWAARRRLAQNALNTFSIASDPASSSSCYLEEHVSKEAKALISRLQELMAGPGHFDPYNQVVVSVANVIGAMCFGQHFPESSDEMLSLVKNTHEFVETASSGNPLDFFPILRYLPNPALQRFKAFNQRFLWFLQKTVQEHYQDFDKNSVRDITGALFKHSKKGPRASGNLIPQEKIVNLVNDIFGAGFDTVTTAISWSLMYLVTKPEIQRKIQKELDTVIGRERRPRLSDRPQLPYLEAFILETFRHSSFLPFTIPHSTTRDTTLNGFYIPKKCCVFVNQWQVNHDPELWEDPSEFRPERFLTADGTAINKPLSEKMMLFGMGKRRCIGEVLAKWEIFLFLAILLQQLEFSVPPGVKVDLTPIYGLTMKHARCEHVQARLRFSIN
Put plainly: Inhibition of human CYP1A2 at 1 uM. In kind it is ADME.

The target in a further data set is CYP2C19 (Homo sapiens, UniProt P33261). Put plainly: Inhibition of human CYP2C19 at 1 uM. In kind it is ADME.
The next data set deals with CYP3A4 (Homo sapiens, UniProt P08684). As to the kind of experiment: Inhibition of human CYP3A4 at 1 uM. The data set is classed as ADME.
The next data set has as its target CYP2C9 (Homo sapiens, UniProt P11712). Put plainly: Inhibition of human CYP2C9 at 1 uM. In kind it is ADME.
The target in the next data set is CYP2D6 (Homo sapiens, UniProt P10635). Put plainly: Inhibition of human CYP2D6 at 1 uM. In kind it is ADME.
For the next data set, the system named is HCT-15. Put plainly: cells. The conditions noted are these: Homo sapiens, HCT-15, 72 h.
The subject of a further data set is A549. As to the kind of experiment: cells. The conditions noted are these: Homo sapiens, A549, 48 h.
The test system of the next data set is HeLa. As to the kind of experiment: cells. The conditions noted are these: Homo sapiens, 48 h.
The next data set deals with HCT-116. Put plainly: cells. The conditions noted are these: Homo sapiens, HCT-116, 72 h.
The next data set deals with HT-29. As to the kind of experiment: cells. The conditions noted are these: Homo sapiens, HT-29, 48 h.
The nature of data set [1]: Cytotoxicity against human MESSA/DX5 cells assessed as growth inhibition after 72 hrs by Celltiter-Glo luminescent assay. In kind it is functional, cell-based. The conditions noted are these: MES-SA/Dx5, 72 h. In general terms: Cellular ATP, detected with luciferase, serves as a proxy for viable cell number.

Chain of CYP3A4 (P08684 whole entry): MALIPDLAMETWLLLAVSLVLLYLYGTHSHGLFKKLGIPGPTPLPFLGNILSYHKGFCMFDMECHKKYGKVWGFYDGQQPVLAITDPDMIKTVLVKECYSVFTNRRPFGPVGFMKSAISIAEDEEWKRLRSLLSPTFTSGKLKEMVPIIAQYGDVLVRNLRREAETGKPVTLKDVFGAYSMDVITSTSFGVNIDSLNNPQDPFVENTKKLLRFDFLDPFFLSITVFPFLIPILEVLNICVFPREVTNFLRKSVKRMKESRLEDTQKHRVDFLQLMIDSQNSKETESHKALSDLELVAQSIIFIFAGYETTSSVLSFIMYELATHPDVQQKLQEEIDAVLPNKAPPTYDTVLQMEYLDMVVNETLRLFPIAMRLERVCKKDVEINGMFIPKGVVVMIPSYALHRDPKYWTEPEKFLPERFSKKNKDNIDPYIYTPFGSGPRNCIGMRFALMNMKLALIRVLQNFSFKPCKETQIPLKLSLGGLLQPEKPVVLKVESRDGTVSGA
Chain of CYP2C19 (P33261 whole entry): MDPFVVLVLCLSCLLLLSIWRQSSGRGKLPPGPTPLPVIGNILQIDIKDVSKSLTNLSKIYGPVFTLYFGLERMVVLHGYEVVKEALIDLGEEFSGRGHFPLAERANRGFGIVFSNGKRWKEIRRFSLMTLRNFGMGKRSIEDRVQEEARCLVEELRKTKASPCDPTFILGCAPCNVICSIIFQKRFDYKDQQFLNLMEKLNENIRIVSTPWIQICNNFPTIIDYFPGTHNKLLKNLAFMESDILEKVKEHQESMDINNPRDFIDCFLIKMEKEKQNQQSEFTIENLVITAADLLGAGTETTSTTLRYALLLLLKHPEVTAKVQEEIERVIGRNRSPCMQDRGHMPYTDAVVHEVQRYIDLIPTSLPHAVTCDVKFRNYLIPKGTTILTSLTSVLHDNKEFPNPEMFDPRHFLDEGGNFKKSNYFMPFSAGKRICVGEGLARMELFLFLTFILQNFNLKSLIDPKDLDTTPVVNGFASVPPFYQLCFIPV
Chain of CYP2C9 (P11712 whole entry): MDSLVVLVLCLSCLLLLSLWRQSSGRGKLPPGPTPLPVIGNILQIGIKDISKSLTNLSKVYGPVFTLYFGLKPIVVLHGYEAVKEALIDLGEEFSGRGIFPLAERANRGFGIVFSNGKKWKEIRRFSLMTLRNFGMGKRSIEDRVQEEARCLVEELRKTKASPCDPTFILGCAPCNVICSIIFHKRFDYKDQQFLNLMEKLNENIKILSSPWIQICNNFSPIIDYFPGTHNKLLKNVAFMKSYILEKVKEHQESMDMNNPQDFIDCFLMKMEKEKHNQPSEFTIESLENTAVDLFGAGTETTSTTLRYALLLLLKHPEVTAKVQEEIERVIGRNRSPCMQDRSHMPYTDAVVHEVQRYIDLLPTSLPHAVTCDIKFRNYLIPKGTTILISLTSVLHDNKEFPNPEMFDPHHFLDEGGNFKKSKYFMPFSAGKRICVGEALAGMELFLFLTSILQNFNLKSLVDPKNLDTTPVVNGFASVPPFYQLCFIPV
Chain of CYP2D6 (P10635 whole entry): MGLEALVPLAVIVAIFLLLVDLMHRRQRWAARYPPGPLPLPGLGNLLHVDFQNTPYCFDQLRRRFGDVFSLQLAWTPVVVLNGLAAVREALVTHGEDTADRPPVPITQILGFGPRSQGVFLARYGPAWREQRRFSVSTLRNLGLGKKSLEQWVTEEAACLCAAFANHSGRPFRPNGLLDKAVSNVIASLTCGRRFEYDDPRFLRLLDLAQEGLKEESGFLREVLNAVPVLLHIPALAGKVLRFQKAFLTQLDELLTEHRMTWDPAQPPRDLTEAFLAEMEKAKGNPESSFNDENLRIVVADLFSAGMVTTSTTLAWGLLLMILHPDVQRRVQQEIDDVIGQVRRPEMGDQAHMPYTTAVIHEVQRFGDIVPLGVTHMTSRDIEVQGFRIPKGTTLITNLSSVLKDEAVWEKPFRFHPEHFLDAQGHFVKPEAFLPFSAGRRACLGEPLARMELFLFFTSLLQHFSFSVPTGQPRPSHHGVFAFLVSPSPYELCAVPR
Description for A549: Cytotoxicity against human A549 cells assessed as growth inhibition after 48 hrs by MTT assay
Description for HCT-116: Cytotoxicity against human HCT116 assessed as growth inhibition after 72 hrs by Celltiter-Glo luminescent assay
Description for HCT-15: Cytotoxicity against human HCT15 cells assessed as growth inhibition after 72 hrs by Celltiter-Glo luminescent assay
Description for HT-29: Cytotoxicity against human HT-29 cells assessed as growth inhibition after 48 hrs by MTT assay
Description for HeLa: Cytotoxicity against human HeLa cells assessed as growth inhibition after 48 hrs by MTT assay

For the molecule `N#CC(C#N)=NNc1cccc(Cl)c1` [CARBONYL CYANIDE M-CHLOROPHENYLHYDRAZONE], in the data set on U-87 MG, the Activity was determined as 50%.
In the case of `COc1cc(C(=O)c2c(-c3ccc[nH]3)[nH]c3ccccc23)cc(OC)c1OC`, the inhibition at Tubulin (Homo sapiens) worked out at 79%.
In the case of `CCC1=C[C@@H]2CN(C1)Cc1c([nH]c3ccccc13)[C@@](C(=O)OC)(c1cc3c(cc1OC)N(C)[C@H]1[C@@](O)(C(=O)OC)[C@H](OC(C)=O)[C@]4(CC)C=CCN5CC[C@]31[C@@H]54)C2` [VINORELBINE], the IC50 in the data set on NCI/ADR-RES was 5000 nM.
On to `COc1cc(C(=O)c2c(-c3cc[nH]c3)[nH]c3ccccc23)cc(OC)c1OC`, for which, on Tubulin (Homo sapiens), the inhibition worked out at 71%.
On the same count and under the same terms, under `COc1cc(Sc2c(-c3cn[nH]c3)[nH]c3ccccc23)cc(OC)c1OC` stands 81%; under `COc1cc(C(O)c2c(-c3cc[nH]c3)[nH]c3ccccc23)cc(OC)c1OC` (stereo not drawn), 70%.
Take `COc1cc(Sc2c(-c3cccnc3)[nH]c3ccccc23)cc(OC)c1OC`: the inhibition at 1 µM against CYP1A2 was 23.4%; against CYP2C19, 84.9%; against CYP3A4, 76.4%; against CYP2C9, 102%. For the same molecule, at Tubulin (Homo sapiens), the inhibition was 88%.
With `COc1cc(Sc2c(-c3ccncc3)[nH]c3ccccc23)cc(OC)c1OC`, the inhibition at 1 µM on CYP1A2 is 14.5%; at CYP2C19, 100%; at CYP2D6 it was 43.1%; against CYP3A4 it was 58%; at CYP2C9, 100%. Further, the inhibition on Tubulin (Homo sapiens) was 91%.
Consider `COc1cc(C(=O)c2c(-c3ccco3)[nH]c3ccccc23)cc(OC)c1OC`, for which the inhibition at Tubulin (Homo sapiens) worked out at 78%.
Regarding `COc1cc(Sc2c(-c3cc[nH]n3)[nH]c3ccccc23)cc(OC)c1OC`, the inhibition on Tubulin (Homo sapiens) was 78%.
Same read-out and setting: under `COc1cc(Sc2c(-c3cccc(F)c3)[nH]c3ccccc23)cc(OC)c1OC` stands 75%.
For the molecule `COc1cc(Sc2c(-n3cncn3)[nH]c3ccccc23)cc(OC)c1OC`, the inhibition at 1 µM against CYP1A2 was less than 5%; at CYP2C19, 83.9%; against CYP2D6, less than 5%; on CYP3A4 it was 51.4%; against CYP2C9, 93.1%. Also, on Tubulin (Homo sapiens), the inhibition was found to be 83%.
`CC(=O)O[C@H]1C(=O)[C@@]2(C)[C@H]([C@H](OC(=O)c3ccccc3)[C@]3(O)C[C@H](OC(=O)[C@H](O)[C@@H](NC(=O)c4ccccc4)c4ccccc4)C(C)=C1C3(C)C)[C@]1(OC(C)=O)CO[C@@H]1C[C@@H]2O` [PACLITAXEL] returned an IC50 with HCT-15 of 90 nM.
As to `COc1cc(Sc2c(-n3ccnc3)[nH]c3ccccc23)cc(OC)c1OC`, the inhibition at 1 µM worked out at 22.9% against CYP1A2; 82.5% against CYP2C19; 10.6% against CYP2D6; 94.5% at CYP3A4; 95.9% on CYP2C9. The inhibition on Tubulin (Homo sapiens) amounted to 92%.
Consider `COc1cc(Sc2c(-c3ccccc3F)[nH]c3ccccc23)cc(OC)c1OC`, for which, on Tubulin (Homo sapiens), the inhibition was determined as 74%.
In the case of `COc1cc(Sc2c(-c3nccs3)[nH]c3ccccc23)cc(OC)c1OC`, on Tubulin (Homo sapiens), the inhibition was 72%.
`COc1cc(Sc2c(-c3ccc(F)cc3)[nH]c3ccccc23)cc(OC)c1OC`: on Tubulin (Homo sapiens), the inhibition turned out to be 74%.
With `COc1cc(C(=O)c2c(-c3ccoc3)[nH]c3ccccc23)cc(OC)c1OC`, on Tubulin (Homo sapiens), the inhibition came out at 77%.
As for `CC[C@]1(O)C[C@@H]2CN(CCc3c([nH]c4ccccc34)[C@@](C(=O)OC)(c3cc4c(cc3OC)N(C)[C@H]3[C@@](O)(C(=O)OC)[C@H](OC(C)=O)[C@]5(CC)C=CCN6CC[C@]43[C@@H]65)C2)C1` [VINBLASTINE], the IC50 in the data set on A549 worked out at 20 nM; in the data set with HeLa, 10 nM; in the data set on HCT-116 it was 3 nM; in the data set with HT-29, 30 nM; in data set [1], 144 nM; in the data set with HCT-15, 24 nM.

As usually defined, the inhibition is the change of the read-out against control, counted positive when it falls. As usually defined, the IC50 is the point on the concentration scale where inhibition reaches its midpoint.
